According to US20240018121A1, “NOVEL HETEROAROMATIC COMPOUNDS EXHIBITING ANTIFUNGAL ACTIVITY AND THEIR METHOD OF USE” (FOX CHASE CHEMCIAL DIVERSITY CENTER, INC., priority 2020, published 2024):
In brackets after ≈: the same amount, converted by molar mass. Counter-ions that a name gives are not always drawn. Like-named read-outs stand apart in the source and are kept apart here.

Experiments:
Format in all cases: cell-based
[1] = test system: Aspergillus flavus AFL1 (ATCC MYA-3631); experiment: Fungal MIC Protocol, Aspergillus flavus; settings: for MIC: Aspergillus flavus, read-out: MIC Aspergillus flavus 3631
Description: (§1) Fungal MIC Protocol: RPMI/MOPS media (Roswell Park Memorial Institute/3-morpholinopropane-1-sulfonic acid media) is prepared by dissolving 8.4 grams RPMI […] (Sigma cat #R1383), 34.52 grams MOPS buffer (Sigma cat #M3.183) and 2 […] glucose in 900 mL deionized water. The pH is adjusted to 7.0 with NaOH and filter sterilized. 0.1 mL, of a stock spore suspension (or loop from frozen stock) is inoculated to a 75 mL tissue culture flask (Falcon cat #353136) containing 50 mL of Potato Dextrose Agar (PDA, 24 grams PD broth (Fisher cat #DF 0549179), 20 grams agar (Fisher cat #BP 1423500) per liter water). Aspergillus and Fusarium strains are grown at 35° C. and Mucor strains are grown at room temperature for 3-5 days. Spores are harvested by flooding the flask with 5 mL phosphate buffered saline (PBS) pH 7.4+0.1% Tween-20 and several glass beads (Fisher cat #S800243) are added to aid in agitation. The supernatant is removed and the OD530 of a 1:100 dilution is measured. Spores are diluted in RPMI/MOPS to a final OD530 of 0.002 for Aspergillus and an OD530 of 0.005 for Fusarium and Mucor. The final concentration of spores is approximately 2×10^4 cfu/mL. Test compound(s) are diluted to 200 ug/mL in RPMI/MOPS ([…]). Ten (10) serial dilutions are prepared with RPMI/MOPS in a 96-well round bottom plate (Fisher cat #353136). For Mucor strains a sterile flat-bottom 96-well plate is used. 50 μl of compound dilutions in duplicate are added to a sterile 96-well round bottom plate. 50 ul of diluted spores are added to the compound-containing plates. Control wells include 1) compound but no cells and 2) spores but no compound. Mix the plates gently by hand, place in ziplock bags and
(§2) incubate at 35° C. for 48 hours. […]

[2] = test system: Aspergillus fumigatus T33439 (ATCC MYA-3626); experiment: Fungal MIC Protocol, Aspergillus fumigatus; settings: for MIC: Aspergillus fumigatus, read-out: MIC Aspergillus fumigatus 3626
Description: as §1, §2

[3] = test system: Fusarium falciforme FS1 (ATCC MYA-3636); experiment: Fungal MIC Protocol, Fusarium falciforme; settings: for MIC: Fusarium falciforme, read-out: MIC Fusarium falciforme 3636
Description: as §1, §2

[4] = test system: Fusarium solani (ATCC 58877); experiment: Fungal MIC Protocol, Fusarium solani; settings: for MIC: Fusarium solani, read-out: MIC Fusarium solani 58877
Description: as §1, §2

[5] = test system: Mucor circinelloides 1463(62) (ATCC 26759); experiment: Fungal MIC Protocol, Mucor circinelloides (MIC-50); settings: for MIC50: Mucor circinelloides, read-out: MIC-50 Mucorales circinelloides 26579
Description: as §1
(§3) incubate at 35° C. for 48 hours. Score the MIC visually (lowest concentration of compound showing >50% growth inhibition) using an inverted mirror.

[6] = test system: Mucor ramosissimus 057718 (ATCC 90286); experiment: Fungal MIC Protocol, Mucor ramosissimus (MIC-50); settings: for MIC50: Mucor ramosissimus, read-out: MIC-50 Mucorales ramosissimus 90286
Description: as §1, §3

Candida albicans GDH2346 = experiment: Candida Minimal Inhibitory Concentration (MIC); settings: for MIC50: Candida albicans, read-out: MIC-50 Candida albicans GDH2346
Description: Candida Minimal Inhibitory Concentration (MIC): RPMI/MOPS media is prepared by dissolving 8.4 g RPMI 1640, 34.52 g MOPS buffer and 2 g glucose in 900 mL water. The pH is adjusted to 7.0 with NaOH. The total volume is brought to 1 L and the resulting solution is filter sterilized. The Candida stock is streaked on a Yeast extract Peptone Dextrose (YPD) agar plate and grown at 35° C. for isolation of single colonies. Compounds of the disclosure are diluted to 200 μg/mL in RPMI/MOPS (4.8 ul of 10 mg/mL DMSO stock in 240 ul media). Ten (10) 1:2 serial dilutions are prepared in RPMI/MOPS in a 96-well round bottom plate. Fifty (50) μl of compound dilutions are transferred in duplicate to a sterile tissue culture-treated 96-well flat-bottom, black-sided polypropylene plate. A single colony of Candida from the YPD plate is re-suspended in 5 mL phosphate buffered saline (BS) and optical density (OD) at 600 nm is measured. The suspension is adjusted to OD=1.0 and a 1:1000 dilution is prepared in RPMI/MOPS. Fifty (50) ul aliquots of the diluted yeast are added to the plates containing 50 μL of compound to all wells except 12E-H. Control wells include: 12 A-D cells, no compound and 12 E-H no cells, no compound. The plates are mixed gently by hand and placed in Ziplok bags in a 35° C. incubator. The OD600 is measured at 24 and 48 hours.

[7] = 100% growth inhibition at 48 hours
[8] = ATCC58877, 100% growth inhibition at 48 hours
[9] = ATCC26759, 50% growth inhibition at 48 hours
[10] = ATCC90286, 50% growth inhibition at 48 hours
[11] = GDH2346, 50% growth inhibition at 48 hours
[12] = 50% growth inhibition at 48 hours

Row | SMILES | MIC [1, 7] [µg/mL] | MIC [2, 7] [µg/mL] | MIC [3, 7] [µg/mL] | MIC [4, 8] [µg/mL] | MIC50 [5, 9] [µg/mL] | MIC50 [6, 10] [µg/mL] | MIC50 (Candida albicans GDH2346; [11]) [µg/mL] | further results
1 | Cn1c(-c2ccc(C3=CCN(C(=N)N)CC3)cc2)nnc1-c1ccc(C2=CCN(C(=N)N)CC2)c(C(F)(F)F)c1 [Example 25, 4-(4-(5-(4-(1-Carbamimidoyl-1,2,3,6-tetrahydropyridin-4-yl)-3-(trifluoromethyl)phenyl)-4-methyl-4H-1,2,4-triazol-3-yl)phenyl)-5,6-dihydropyridine-1(2H)-carboximidamide] | 0.39 (≈ 0.71 µM) | 0.2 (≈ 0.364 µM) | 0.2 (≈ 0.364 µM) | 0.2 (≈ 0.364 µM) | 0.78 (≈ 1.42 µM) | 3.13 (≈ 5.69 µM) | 0.78 (≈ 1.42 µM) | 
2 | CNc1cc(C2=CCN(C(=N)N)CC2)cc(F)c1-c1nnc(-c2ccc(C3=CCN(C(=N)N)CC3)cc2)n1C [Example 23, 4-(4-(5-(4-(1-Carbamimidoyl-1,2,3,6-tetrahydropyridin-4-yl)-2-fluoro-6-(methylamino)phenyl)-4-methyl-4H-1,2,4-triazol-3-yl)phenyl)-5,6-dihydropyridine-1(2H)-carboximidamide] | 0.78 (≈ 1.48 µM) | 0.39 (≈ 0.738 µM) | 0.39 (≈ 0.738 µM) | 0.2 (≈ 0.378 µM) | 0.39 (≈ 0.738 µM) | 1.56 (≈ 2.95 µM) | 0.39 (≈ 0.738 µM) | 
3 | N=C(N)N1CC=C(c2ccc(-c3nnc(-c4ccc(C5=CCN(C(=N)N)CC5)cc4F)n3CCO)cc2)CC1 [Example 82, 4-(4-{5-[4-(1-carbamimidoyl-1,2,3,6-tetrahydropyridin-4-yl)-2-fluorophenyl]-4-(2-hydroxyethyl)-4H-1,2,4-triazol-3-yl}phenyl)-1,2,3,6-tetrahydropyridine-1-carboximidamide hydrochloride] |  |  |  |  |  |  |  | MIC ([1]; 48 h): 0.2 µg/mL; MIC ([2]; 48 h): 0.1 µg/mL; MIC ([3]; 48 h): 0.05 µg/mL; MIC ([4]; ATCC58877, 48 h): 0.05 µg/mL; MIC50 ([5]; ATCC26759, 48 h): 0.39 µg/mL; MIC50 ([6]; ATCC90286, 48 h): 1.56 µg/mL; MIC50 (Candida albicans GDH2346; GDH2346, 48 h): 0.2 µg/mL
4 | CCCCCCCCn1c(-c2ccc(C3=CCN(C(=N)N)CC3)cc2F)nnc1-c1ccc(C2=CCN(C(=N)N)CC2)cc1F [Example 11, 4,4′-(4,4′-(4-Octyl-4H-1,2,4-triazole-3,5-diyl)bis(3-fluoro-4,1-phenylene))bis(5,6-dihydropyridine-1(2H)-carboximidamide)] | 0.78 (≈ 1.27 µM) | 0.39 (≈ 0.633 µM) | 0.2 (≈ 0.325 µM) | 0.2 (≈ 0.325 µM) | 1.56 (≈ 2.53 µM) | 3.13 (≈ 5.08 µM) | 1.56 (≈ 2.53 µM) | 
5 | Cc1cc(C2=CCN(C(=N)N)CC2)ccc1-c1cn(-c2ccc(C3=CCN(C(=N)N)CC3)cc2)nn1 [Example 36, 4-(4-(4-(4-(1-Carbamimidoyl-1,2,3,6-tetrahydropyridin-4-yl)-2-methylphenyl)-1H-1,2,3-triazol-1-yl)phenyl)-5,6-dihydropyridine-1(2H)-carboximidamide] | 0.2 (≈ 0.415 µM) | 0.2 (≈ 0.415 µM) | 0.1 (≈ 0.208 µM) | 0.2 (≈ 0.415 µM) | 0.78 (≈ 1.62 µM) | 3.13 (≈ 6.5 µM) | 0.39 (≈ 0.81 µM) | 
6 | Cc1cc(-n2nnc(-c3ccc(C4=CCN(C(=N)N)CC4)cc3)c2C)ccc1C1=CCN(C(=N)N)CC1 [Example 33, 4-(4-{4-[4-(1-Carbamimidoyl-1,2,3,6-tetrahydropyridin-4-yl)phenyl]-5-methyl-1H-1,2,3-triazol-1-yl}-2-methylphenyl)-1,2,3,6-tetrahydropyridne-1-carboximidamide] | 0.04 (≈ 0.0807 µM) | 0.63 (≈ 1.27 µM) | 0.05 (≈ 0.101 µM) | 0.025 (≈ 0.0504 µM) | 3.13 (≈ 6.32 µM) | 12.5 (≈ 25.2 µM) | 0.08 (≈ 0.161 µM) | 
7 | Cn1nc(-c2ccc(C3=CCN(C(=N)N)CC3)cc2)nc1-c1ccc(C2=CCN(C(=N)N)CC2)cc1 [Example 38, 4,4′-(4,4′-(1-Methyl-1H-1,2,4-triazole-3,5-diyl)bis(4,1-phenylene)) bis(5,6-dihydropyridine-1(2H)-carboximidamide)] |  |  |  |  |  |  |  | MIC Aspergillus flavus 3631 [1, 7]: 0.16 µg·mL; MIC Aspergillus fumigatus 3626 [2, 7]: 0.2 µg·mL; MIC Fusarium falciforme 3636 [3, 7]: 0.2 µg·mL; MIC Fusarium solani 58877 [4, 7]: <0.1 µg·mL; MIC-50 Mucorales circinelloides 26579 [5, 12]: 3.13 µg/mL (≈ 6.5 µM); MIC-50 Mucorales ramosissimus 90286 [6, 12]: 0.78 µg/mL (≈ 1.62 µM); MIC-50 Candida albicans GDH2346 (Candida albicans GDH2346; [12]): 6.25 µg/mL (≈ 13 µM)
8 | CNc1cc(C2=CCN(C(=N)N)CC2)ccc1-c1nnc(-c2ccc(C3=CCN(C(=N)N)CC3)cc2NC)o1 [Example 47b, 4,4′-(4,4′-(1,3,4-Oxadiazole-2,5-diyl)bis(3-(methylamino)-4,1-phenylene))bis(5,6-dihydropyridine-1(2H)-carboximidamide)] |  |  |  |  |  |  |  | MIC Aspergillus flavus 3631 [1, 7]: 0.78 µg·mL; MIC Aspergillus fumigatus 3626 [2, 7]: 0.78 µg·mL; MIC-50 Candida albicans GDH2346 (Candida albicans GDH2346; [12]): 1.56 µg/mL (≈ 2.96 µM)

Further lines, with some results ahead:

Row | MIC [1, 7] [µg/mL] | MIC [2, 7] [µg/mL] | MIC [3, 7] [µg/mL] | MIC [4, 8] [µg/mL] | MIC50 [5, 9] [µg/mL] | MIC50 [6, 10] [µg/mL] | MIC50 (Candida albicans GDH2346; [11]) [µg/mL] | SMILES | further results
9 | 0.78 (≈ 1.55 µM) | 0.78 (≈ 1.55 µM) | < 0.1 | 3.13 (≈ 6.2 µM) | 0.78 (≈ 1.55 µM) | 6.25 (≈ 12.4 µM) | 1.56 (≈ 3.09 µM) | N=C(N)N1CC=C(c2ccc(-c3nnc(-c4ccc(C5=CCN(C(=N)N)CC5)cc4F)o3)c(F)c2)CC1 [Example 48] | 
10 | 0.39 (≈ 0.785 µM) | 0.39 (≈ 0.785 µM) |  |  |  |  | 0.39 (≈ 0.785 µM) | Cc1cc(C2=CCN(C(=N)N)CC2)cc(C)c1-c1nnc(-c2ccc(C3=CCN(C(=N)N)CC3)cc2)o1 [Example 45, 4-(4-(5-(4-(1-Carbamimidoyl-1,2,3,6-tetrahydropyridin-4-yl)-2,6-dimethylphenyl)-1,3,4-oxadiazol-2-yl)phenyl)-5,6-dihydropyridine-1(2H)-carboximidamide] | 
11 | 6.25 (≈ 13.2 µM) | 50 (≈ 106 µM) |  |  |  |  | 4.3 (≈ 9.1 µM) | N=C(N)N1CCC(c2ccc(-c3nnc(-c4ccc(C5CCN(C(=N)N)CC5)cc4)o3)cc2)CC1 [Example 52, 4,4′-(4,4′-(1,3,4-Oxadiazole-2,5-diyl)bis(4,1-phenylene)) dipiperidine-1-carboximidamide] | 
12 | 1.56 (≈ 3.14 µM) | 6.25 (≈ 12.6 µM) |  |  |  |  | 0.39 (≈ 0.785 µM) | Cc1c(C2=CCN(C(=N)N)CC2)ccc(-c2nnc(-c3ccc(C4=CCN(C(=N)N)CC4)cc3)o2)c1C [Example 44, 4-(4-(5-(4-(1-Carbamimidoyl-1,2,3,6-tetrahydropyridin-4-yl)-2,3-dimethylphenyl)-1,3,4-oxadiazol-2-yl)phenyl)-5,6-dihydropyridine-1(2H)-carboximidamide] | 
